Data: the supplement of paper PMC5579334

What was measured:
[1] = system: HS-PSS; assay: relative IC50 (inflection point of fitted dose-response curve, CellTox-Green cytotoxicity, 72 h; top asymptote may be below 50%); higher = less potent
In short: (§1)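 MPNST cell lines and primary human Schwann cells were grown for 72 h at 37 °C in 384-well plates containing five 10-fold compound dilutions. CellTox-Green, added before seeding at a final 1:1000 dilution, gave fluorescence from DNA released by disrupted cells, and signals were scaled to vehicle and positive-control wells. Curves were fitted with a four-parameter logistic model. Drug sensitivity score and relative IC50 come from these fits, with IC50 censored at the top concentration.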

[2] = system: HSC1; assay: as above
In short: as §1

[3] = system: HSC2; assay: as above
In short: as §1

[4] = system: S1507-2; assay: as above
In short: as §1

[5] = system: ST8814; assay: as above
In short: as §1

[6] = system: STS26T; assay: as above
In short: as §1

[7] = system: HS-PSS; assay: relative IC50 (inflection point of fitted dose-response curve, CellTiter-Glo viability, 72 h; top asymptote may be below 50% inhibition); higher = less potent
In short: (§2)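 For this screen, 384-well plates were preprinted with each compound at five concentrations in 10-fold steps and seeded with MPNST cell lines or primary human Schwann cells at 750–1000 cells per well. Incubation lasted 72 h at 37 °C, 5% CO2, and CellTiter-Glo ATP luminescence, scaled between vehicle and positive-control wells and averaged over duplicates where available, served as viability. Logistic fits with four parameters were applied. Relative IC50 (censored at the top concentration) and drug sensitivity score derive from these fits, and percent inhibition is at the top concentration.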

[8] = system: HS-Sch-2; assay: as above
In short: as §2

[9] = system: HSC1; assay: as above
In short: as §2

[10] = system: HSC2; assay: as above
In short: as §2

[11] = system: S462; assay: as above
In short: as §2

[12] = system: ST8814; assay: as above
In short: as §2

[13] = system: STS26T; assay: as above
In short: as §2

[14] = system: S1507-2; assay: as above
In short: as §2

[15] = system: YST-1; assay: as above
In short: as §2

Row | Compound | relative IC50 [1] [µM] | relative IC50 [2] [µM] | relative IC50 [3] [µM] | relative IC50 [4] [µM] | relative IC50 [5] [µM] | relative IC50 [6] [µM] | relative IC50 [7] [nM] | relative IC50 [8] [nM] | relative IC50 [9] [nM] | relative IC50 [10] [µM] | relative IC50 [11] [µM] | relative IC50 [12] [µM] | relative IC50 [13] [µM] | relative IC50 [14] [µM] | relative IC50 [15] [nM]
1 | O=P1(NCCCl)OCCCN1CCCl (configuration not stated) [Ifosfamide] | > 10 | > 10 | > 10 | > 10 | > 10 | > 10 | > 10000 | > 10000 | > 10000 | > 10 | > 10 | > 10 | > 10 |  | 
2 | Oc1ccc2c(c1)CC[C@H](c1ccccc1)[C@@H]2c1ccc(OCCN2CCCC2)cc1 [Lasofoxifene] | > 1 | > 1 | > 1 | > 1 | > 1 | > 1 |  | > 1000 | > 1000 | > 1 |  | > 1 | > 1 | > 1 | > 1000
3 | CC1(C)CCC(c2ccc(Cl)cc2)=C(CN2CCN(c3ccc(C(=O)NS(=O)(=O)c4ccc(N[C@H](CCN5CCOCC5)CSc5ccccc5)c(S(=O)(=O)C(F)(F)F)c4)cc3)CC2)C1 [Navitoclax] | > 10 | 1.54 | 0.983 | 0.608 | 1.5 |  | > 10000 | 547 |  | 1.12 |  |  |  | 0.582 | 471
4 | CC1(C)NC(=O)N(c2ccc([N+](=O)[O-])c(C(F)(F)F)c2)C1=O [Nilutamide] | > 10 | > 10 | > 10 | > 10 | > 10 | > 10 |  |  |  | > 10 | > 10 | > 10 | > 10 | > 10 | > 10000
5 | COC(=O)c1ccc2c(c1)NC(=O)/C2=C(\Nc1ccc(N(C)C(=O)CN2CCN(C)CC2)cc1)c1ccccc1 [Nintedanib] |  | > 10 | > 10 | > 10 | > 10 | > 10 | 3970 | 3710 | > 10000 | > 10 | > 10 | > 10 | > 10 |  | 1120
6 | O=C(Nc1cccnc1)N1CCC(Cc2cccc(Oc3ccc(C(F)(F)F)cn3)c2)CC1 [PF-3845] | > 10 | > 10 |  | > 10 | > 10 | > 10 | 1410 | 3070 | 1520 | 1.43 |  |  |  | > 10 | 3520
7 | C[C@]12C=CC(=O)C=C1CC[C@@H]1[C@@H]2C(=O)C[C@@]2(C)[C@H]1CC[C@]2(O)C(=O)CO [Prednisone] | > 10 | > 10 | > 10 | > 10 | > 10 | > 10 | > 10000 |  | > 10000 | > 10 | > 10 | > 10 | > 10 |  | > 10000
8 | CS(=O)(=O)c1ccc(C2=C(c3ccccc3)C(=O)OC2)cc1 [Rofecoxib] | > 10 | > 10 | > 10 | > 10 | > 10 | > 10 | > 10000 | > 10000 | > 10000 | > 10 | > 10 | > 10 | > 10 |  | > 10000
9 | N[C@@H](CSC(c1ccccc1)(c1ccccc1)c1ccccc1)C(=O)O [S-trityl-L-cysteine] |  | > 40 | > 40 | > 40 | > 40 | > 40 |  |  |  | > 40 |  | > 40 |  | > 40 | 
10 | CC[C@H](CO)Nc1nc(NCc2ccccc2)c2ncn(C(C)C)c2n1 [Seliciclib] |  | > 10 | > 10 | > 10 | > 10 |  | 1670 |  |  | 3.99 | 3.61 | > 10 |  | > 10 | > 10000
11 | CCS(=O)(=O)c1cccc(-c2cc(C(=O)NC3CCN(C)CC3)c(C)c3[nH]c4ncc(C)cc4c23)c1 [TAK-901] | > 1 |  | 0.183 | > 1 | 0.134 | 0.0623 | 150 | 327 | 111 | 0.0725 | 0.122 | 0.267 | 0.112 |  | 63.3
12 | COc1cc2c(N3CCN(C(=O)Nc4ccc(OC(C)C)cc4)CC3)ncnc2cc1OCCCN1CCCCC1 [Tandutinib] | > 1 | > 1 | > 1 | > 1 | > 1 | > 1 |  | > 1000 | > 1000 | > 1 | > 1 | > 1 | > 1 |  | > 1000
13 | COc1cc2c(NC3CCN(C(C)C)CC3)nc(N3CCC(F)(F)CC3)nc2cc1OCCCN1CCCC1 [UNC0642] | 2.96 | > 10 | > 10 | 2.9 | 3.02 | 2.91 | 2600 | 2880 |  | > 10 | 2.69 | 2.97 | 3.06 | 1.94 | 3190
14 | Clc1ccc(Nc2nnc(Cc3ccncc3)c3ccccc23)cc1 [Vatalanib] | > 10 | > 10 | > 10 | > 10 | > 10 | > 10 |  |  | > 10000 |  |  | > 10 | > 10 | > 10 | 
